Results as given in patent US20100184727A1, “TREATMENT OF EXCESS SEBUM PRODUCTION” (SUMMIT (CAMBRIDGE) LIMITED, priority 2006, published 2010).
In brackets after ≈: the same amount, converted by molar mass. Where a name gives a salt, the structure may show the parent alone. Read-outs that look alike come from different tables or passages of the source.

What was measured:
[1] = system: Propionibacterium acnes NCTC 737; assay: MIC/MBC 96-well plate broth micro-dilution assay; type: cell-based; conditions: for MBC / MIC: Cutibacterium acnes
Experimental: The anaerobic cutaneous propionibacteria e.g. Propionibacterium acnes are implicated in the pathogenesis of acne vulgaris. The test organism Propionibacterium acnes is classified as a ‘Type’ strain for the species. […] MIC determinations were carried out using a standard 96-well plate broth micro-dilution assay. Wilkins-Chalgren anaerobe broth at pH 6 and pH 7.1±0.2 was used for P. acnes. […] The test range for the control compounds varied depending on known activity levels. […] Benzoyl peroxide and erythromycin were used as control compounds in P. acnes assays. Benzoyl peroxide and erythromycin were both dissolved in ethanol.

sebum production = assay: Sebum production study in healthy male volunteers (Sebumeter); type: in vivo; conditions: for Sebum Production Maximum % Reduction LS Means: compared to placebo, healthy male volunteers
Experimental: The study examined the effects of oxybutynin on sebum production in 9 healthy male volunteers. This was double-blind, randomised, placebo-controlled dose study
The subjects were assessed on each dosing occasion for sebum production pre-dose and 1 h, 2.5 h, 4 h and 6 h post-dose. Skin sebum excretion rates were determined using a Sebumeter® (Optical measurement of sebum excretion using opalescent film imprint, 2006, Handbook of non-invasive methods and the skin, Second Edition). Vital signs were recorded at specified times during each study period and adverse events were reported throughout.
For each subject, the maximum % reduction in sebum production compared to placebo was calculated for each dose level. Using this information, a mixed effects regression analysis of the % reduction in sebum versus dose with subject as a random effect was performed.

[2] = NCTC737, pH 6, Wilkins-Chalgren agar, mean of minimum 4 replicates, read-out: MBC
[3] = NCTC737, pH 6, Wilkins-Chalgren anaerobe broth, mean of minimum 4 replicates, read-out: MIC
[4] = NCTC737, pH 7.1 ± 0.2, Wilkins-Chalgren agar, mean of minimum 4 replicates, read-out: MBC
[5] = NCTC737, pH 7.1 ± 0.2, Wilkins-Chalgren anaerobe broth, mean of minimum 4 replicates, read-out: MIC

Row | MIC [1, 3] [µg/mL] | MIC [1, 5] [µg/mL] | Compound | MBC [1, 2] [µg/mL] | MBC [1, 4] [µg/mL] | Antimicrobial activity against P. acnes (in words) ([1]; pH 6) | Antimicrobial activity against P. acnes (in words) ([1]; pH 7.1±0.2) | other results
1 | – | – | O=C(OOC(=O)c1ccccc1)c1ccccc1 [Benzoyl peroxide] | – | – | – | – | MBC ([1]; NCTC737, pH 6): 62.5 µg/mL (≈ 258 µM); MIC ([1]; NCTC737, pH 6): 31.2 µg/mL (≈ 129 µM); MBC ([1]; NCTC737, pH 7.1): 62.5 µg/mL (≈ 258 µM); MIC ([1]; NCTC737, pH 7.1): 31.2 µg/mL (≈ 129 µM)
2 | 0.63 (≈ 0.858 µM) | 0.313 (≈ 0.426 µM) | CC[C@H]1OC(=O)[C@H](C)[C@@H](O[C@H]2C[C@@](C)(OC)[C@@H](O)[C@H](C)O2)[C@H](C)[C@@H](O[C@@H]2O[C@H](C)C[C@H](N(C)C)[C@H]2O)[C@](C)(O)C[C@@H](C)C(=O)[C@H](C)[C@@H](O)[C@]1(C)O [Erythromycin] | > 2.5 | > 2.5 | – | – | –
3 | – | – | CCN(CC)CC#CCOC(=O)C(O)(c1ccccc1)C1CCCCC1 (stereo not shown) [oxybutynin] | – | – | – | – | Sebum Production Maximum % Reduction LS Means (sebum production; dose 1 mg): 21.59%; Sebum Production Maximum % Reduction LS Means (sebum production; dose 2 mg): −16.94%; Sebum Production Maximum % Reduction LS Means (sebum production; dose 5 mg): −34.74%; Sebum Production Maximum % Reduction LS Means (sebum production; dose 10 mg): −75.52%; Effect on sebum production (in words) (sebum production; following administration of 2 mg, 5 mg and 10 mg): decreased with dose
4 | 500 | 500 | NC(=O)C(c1ccccc1)(c1ccccc1)[C@@H]1CCN(CCc2ccc3c(c2)CCO3)C1 [Darifenacin hydrobromide, darifenacin hydrobromide] | 1000 | 500 | some moderate antimicrobial activity | some moderate antimicrobial activity | –
5 | 500 | 500 | CCN(CC)CC#CCOC(=O)C(O)(c1ccccc1)C1CCCCC1 (stereo not shown) [Oxybutynin chloride, oxybutynin chloride] | 1000 | 500 | some moderate antimicrobial activity | some moderate antimicrobial activity | –
